Measurements: patent publication US20100314316A1, “HALOGENATED AMIDES AS BIOCIDES FOR TREATING WATER SYSTEMS CONTAINING REDUCING AGENTS” (priority 2009, published 2010)

Columns and labels:
Format in all cases: cell-based
[1] = system: bacteria isolated from paper mill white water; assay: Biocidal efficacy of seven biocides in artificial white water; conditions: artificial white water pH 8.1, 37 C
Protocol: Sterile artificial White Water (111 mg of CaCl2, 60 mg of MgSO4, 168 mg of NaHCO3, 140 mg of K2HPO4, 480 mg of NH4Cl, 1.04 mg of FeCl3.6H2O, 1.48 mg of Na2EDTA, 3000 mg of Dextrose, 10 mg of Yeast Extract, in 1 L water, pH 8.1) is contaminated with field isolated bacteria at a concentration of approximately 10^7 CFU/mL. The aliquots of this contaminated water are then treated with eight dosage levels of DBMAL and six other commonly used biocides in paper mill white water application. The same aliquots of the contaminated water without biocide are used as controls. After incubating at 37° C. for 4 hours, the valid bacteria in the aliquots are enumerated using a serial dilution method and the bacterial log10 reduction is calculated by comparing the valid bacteria number of biocide treated water aliquots to that of controls. Table 4 compares the efficacy of the seven biocides, expressed by bacterial log10 reduction.

field isolated bacteria = assay: Resistance of biocide to sulfite deactivation: biocide pretreated with sulfite in paper mill white water before efficacy testing; conditions: for Decrease of efficacy due to sulfite pretreatment (bacterial log10 reduction): 80 ppm sulfite, 4 hrs; for Bacterial log10 reduction after treatment of biocide for 4 hrs: white water about pH 7.5, 37 C
Protocol: 50 ppm to 80 ppm sulfite is representative of a sulfite level for pulp and paper applications. The same white water sample without sulfite is used as none sulfite comparison and the same whitewater samples containing no biocide and with or without sulfite are used as controls. The water samples are incubated at 37° C. for 5 min and then are inoculated with field isolated bacteria at a concentration of approximately 10^7 CFU/mL. The mixtures are then incubated at 37° C. for 4 hours. After that, the viable bacteria in the mixtures is enumerated using a serial dilution method.

[2] = system: bacteria in sulfite-containing white water; assay: Biocidal efficacy in presence of sulfite in contaminated paper mill white water (1-96 hours); conditions: for Bacterial log10 reduction at time point after biocide addition: about 80 ppm sulfite; for Duration of effectiveness (>3 log10 killing) compared with DBNPA: sulfite-containing white water
Protocol: The same contaminated whitewater samples without biocide are used as controls. The mixtures are incubated at 37° C. with shaking (100 RPM) for 96 hrs. At 1 hr, 3 hrs, 24 hrs, 48 hrs, 72 hrs and 96 hrs time points after the biocide addition, the valid bacteria in the mixtures are enumerated using a serial dilution method and the bacterial log10 reduction is calculated by comparing the valid bacteria number of biocide treated water aliquots to that of controls. Starting from 24 hrs after the sampling, the mixtures are reinoculated with field isolated bacteria at about 10^5 CFU/mL and are supplied with additional sulfite to keep an 80 ppm sulfite concentration.

[3] = 80 ppm sulfite pretreated, 29.7 ppm biocide
[4] = 80 ppm sulfite pretreated, 44.5 ppm biocide
[5] = 80 ppm sulfite pretreated, 66.7 ppm biocide
[6] = 80 ppm sulfite pretreated, 100.0 ppm biocide
[7] = non-sulfite treated, 29.7 ppm biocide
[8] = non-sulfite treated, 44.5 ppm biocide
[9] = non-sulfite treated, 66.7 ppm biocide
[10] = non-sulfite treated, 100.0 ppm biocide
[11] = 25 ppm active, 1 hr, pH 7.6, 37 C
[12] = 25 ppm active, 3 hr, pH 7.6, 37 C
[13] = 25 ppm active, 24 hrs, pH 7.6, 37 C
[14] = 25 ppm active, 48 hrs, reinoculated from 24 hrs
[15] = 25 ppm active, 72 hrs, reinoculated from 24 hrs
[16] = 25 ppm active, 96 hrs, reinoculated from 24 hrs
[17] = 50 ppm active, 1 hr, pH 7.6, 37 C
[18] = 50 ppm active, 3 hr, pH 7.6, 37 C
[19] = 50 ppm active, 24 hrs, pH 7.6, 37 C
[20] = 50 ppm active, 48 hrs, reinoculated from 24 hrs
[21] = 50 ppm active, 72 hrs, reinoculated from 24 hrs
[22] = 50 ppm active, 96 hrs, reinoculated from 24 hrs

CC1(C)C(=O)N(Cl)C(=O)N1Br [BCDMH, 1-Bromo-3-chloro-5,5-dimethylhydantoin]
Minimum dosage (ppm, active) required for at least 3 log10 reduction in numbers of bacteria in 4 hours ([1]; active ppm measured by available bromine & chlorine (chlorine/bromine)): 71.74 (chlorine/bromine) ppm

NC(=O)C(Br)(Br)C(N)=O [DBMAL, 2,2-Dibromomalonamide]
Decrease of efficacy due to sulfite pretreatment (bacterial log10 reduction) (field isolated bacteria; 29.7 ppm biocide): 0.7 log10 | Decrease of efficacy due to sulfite pretreatment (bacterial log10 reduction) (field isolated bacteria; 44.5 ppm biocide): 3.3 log10 | Decrease of efficacy due to sulfite pretreatment (bacterial log10 reduction) (field isolated bacteria; 66.7 ppm biocide): 2.7 log10 | Bacterial log10 reduction after treatment of biocide for 4 hrs (field isolated bacteria; [3]): 1.0 log10 | Bacterial log10 reduction after treatment of biocide for 4 hrs (field isolated bacteria; [4]): 1.0 log10 | Bacterial log10 reduction after treatment of biocide for 4 hrs (field isolated bacteria; [5]): 2.3 log10 | Bacterial log10 reduction after treatment of biocide for 4 hrs (field isolated bacteria; [6]): 2.3 log10 | Decrease of efficacy due to sulfite pretreatment (bacterial log10 reduction) (field isolated bacteria; 100.0 ppm biocide): 2.4 log10 | Bacterial log10 reduction after treatment of biocide for 4 hrs (field isolated bacteria; [7]): 1.7 log10 | Bacterial log10 reduction after treatment of biocide for 4 hrs (field isolated bacteria; [8]): 4.3 log10 | Bacterial log10 reduction after treatment of biocide for 4 hrs (field isolated bacteria; [9]): 5.0 log10 | Bacterial log10 reduction after treatment of biocide for 4 hrs (field isolated bacteria; [10]): 4.7 log10 | Decrease in efficacy when premixed with 80 ppm sulfite, compared with DBNPA (field isolated bacteria; premixed with 80 ppm sulfite): much smaller | Minimum dosage (ppm, active) required for at least 3 log10 reduction in numbers of bacteria in 4 hours ([1]; approximately 10^7 CFU/mL): 81.92 ppm | Bacterial log10 reduction at time point after biocide addition [2, 11]: 2.5 log10 | Bacterial log10 reduction at time point after biocide addition [2, 12]: 3.2 log10 | Bacterial log10 reduction at time point after biocide addition [2, 13]: 4.2 log10 | Bacterial log10 reduction at time point after biocide addition [2, 14]: 3.7 log10 | Bacterial log10 reduction at time point after biocide addition [2, 15]: 1.5 log10 | Bacterial log10 reduction at time point after biocide addition [2, 16]: 1.2 log10 | Bacterial log10 reduction at time point after biocide addition [2, 17]: >=4.0 log10 | Bacterial log10 reduction at time point after biocide addition [2, 18]: 3.8 log10 | Bacterial log10 reduction at time point after biocide addition [2, 19]: >=4.3 log10 | Bacterial log10 reduction at time point after biocide addition [2, 20]: 4.3 log10 | Bacterial log10 reduction at time point after biocide addition [2, 21]: 4.2 log10 | Bacterial log10 reduction at time point after biocide addition [2, 22]: 3.8 log10 | Duration of effectiveness (>3 log10 killing) compared with DBNPA ([2]; same active concentration of 25 ppm): one more day | Duration of effectiveness (>3 log10 killing) compared with DBNPA ([2]; same active concentration of 50 ppm): two more days

N#CC(Br)(Br)C(N)=O [DBNPA, 2,2-Dibromo-3-nitrilopropionamide]
Decrease of efficacy due to sulfite pretreatment (bacterial log10 reduction) (field isolated bacteria; 29.7 ppm biocide): >=3.4 log10 | Decrease of efficacy due to sulfite pretreatment (bacterial log10 reduction) (field isolated bacteria; 44.5 ppm biocide): >=4.4 log10 | Decrease of efficacy due to sulfite pretreatment (bacterial log10 reduction) (field isolated bacteria; 66.7 ppm biocide): >=4.4 log10 | Bacterial log10 reduction after treatment of biocide for 4 hrs (field isolated bacteria; [3]): 1.3 log10 | Bacterial log10 reduction after treatment of biocide for 4 hrs (field isolated bacteria; [4]): 1.3 log10 | Bacterial log10 reduction after treatment of biocide for 4 hrs (field isolated bacteria; [5]): 1.3 log10 | Bacterial log10 reduction after treatment of biocide for 4 hrs (field isolated bacteria; [6]): 2.3 log10 | Decrease of efficacy due to sulfite pretreatment (bacterial log10 reduction) (field isolated bacteria; 100.0 ppm biocide): >=3.4 log10 | Bacterial log10 reduction after treatment of biocide for 4 hrs (field isolated bacteria; [7]): 4.7 log10 | Bacterial log10 reduction after treatment of biocide for 4 hrs (field isolated bacteria; [8]): >=5.7 log10 | Bacterial log10 reduction after treatment of biocide for 4 hrs (field isolated bacteria; [9]): >=5.7 log10 | Bacterial log10 reduction after treatment of biocide for 4 hrs (field isolated bacteria; [10]): >=5.7 log10 | Minimum dosage (ppm, active) required for at least 3 log10 reduction in numbers of bacteria in 4 hours ([1]; approximately 10^7 CFU/mL): 128.00 ppm | Bacterial log10 reduction at time point after biocide addition [2, 11]: >=4.0 log10 | Bacterial log10 reduction at time point after biocide addition [2, 12]: >=4.0 log10 | Bacterial log10 reduction at time point after biocide addition [2, 13]: 3.3 log10 | Bacterial log10 reduction at time point after biocide addition [2, 14]: 1.5 log10 | Bacterial log10 reduction at time point after biocide addition [2, 15]: 0.3 log10 | Bacterial log10 reduction at time point after biocide addition [2, 16]: 0 log10 | Bacterial log10 reduction at time point after biocide addition [2, 17]: >=4.0 log10 | Bacterial log10 reduction at time point after biocide addition [2, 18]: >=4.0 log10 | Bacterial log10 reduction at time point after biocide addition [2, 19]: >=4.3 log10 | Bacterial log10 reduction at time point after biocide addition [2, 20]: 4.5 log10 | Bacterial log10 reduction at time point after biocide addition [2, 21]: 1.0 log10 | Bacterial log10 reduction at time point after biocide addition [2, 22]: 0.7 log10

O=CCCCC=O [Glutaraldehyde]
Minimum dosage (ppm, active) required for at least 3 log10 reduction in numbers of bacteria in 4 hours ([1]; approximately 10^7 CFU/mL): 163.84 ppm

NCl [monochloramine]
Minimum dosage (ppm, active) required for at least 3 log10 reduction in numbers of bacteria in 4 hours ([1]; active expressed as chlorine): 8.00 (chlorine) ppm
